Measurements as given in US9399016B2, “Materials and complexes for the delivery of biologically-active materials to cells” (UCL BUSINESS PLC, priority 2006, dated 2016).

Legend:
16HBE14o- cells = assay: In vitro transfection with LPD/LD complexes, luciferase reporter (pCI-Luc); type: cell-based, human; settings: complexed to peptide E, p<0.05
Description: (§1) Cells were seeded into 96-well plates at 2.5×10^3 cells per well for bEND.3 cells and at 2×10^4 cells per well for all the other cells, then incubated overnight at 37° C. in complete growth medium. The following day, lipopolyplex (LPD) formulations were prepared essentially as described previously (Hart et al., 1998), by mixing the components in the following order: 50 μl of lipid (L) at 80 μg/ml in OptiMEM, 70 μl of peptide (P) at 110 μg/ml in OptiMEM and 50 μl of plasmid pCI-Luc (D) at 40 μg/ml in OptiMEM corresponding to a weight ratio of 2:4:1, respectively. […] The cells were incubated with the complexes for 4 h at 37° C. before replacing with fresh media for 24 h, after which reporter gene expression was analysed by luciferase assay (Promega, Madison, Wis., USA). […]
(§2) Cells were washed once with PBS before the addition of 20 μl of 1× Reporter Lysis Buffer (Promega, Madison, Wis., USA) to the cells for 20 min at 4° C. before freezing at −80° C. for at least 30 min, followed by thawing at room temperature. Then the luciferase activity was measured during 10 seconds using the Luciferase Assay System (Promega, Madison, Wis., USA) and a Lucy-1 Luminometer (Anthos Ltd., Salzburg, Austria). […] In vitro luciferase activity was expressed as Relative Light Units (RLU) per milligram of protein (RLU/mg).

ΣCFTE29o- cells = assay: as above; type: cell-based, human; settings: complexed to peptide E, p<0.05
Description: as §1, §2

[1] = test system: Neuro 2A, AJ3.1, bEND.3, 16HBE14o-, ΣCFTE29o- cells and primary PVSMCs; assay: In vitro transfection, luciferase reporter, statements covering several or all cell types studied; type: cell-based; settings: for transfection efficiency, rank among PEG-acetal pH-sensitive lipids: all the cells, lipid/DOPE complexed to peptide 6 or E and pCI-Luc 2:4:1; for transfection efficiency of cleavable (RVRR) peptide compared with equivalent non-cleavable peptide control: Neuro 2A, bEND.3 and 16HBE14o- cells, stated for 'most' of the peptides, controls P1, P6, FMM12, PE, PY
Description: (§3) Cells were seeded into 96-well plates at 2.5×10^3 cells per well for bEND.3 cells and at 2×10^4 cells per well for all the other cells, then incubated overnight at 37° C. in complete growth medium. The following day, lipopolyplex (LPD) formulations were prepared essentially as described previously (Hart et al., 1998), by mixing the components in the following order: 50 μl of lipid (L) at 80 μg/ml in OptiMEM, 70 μl of peptide (P) at 110 μg/ml in OptiMEM and 50 μl of plasmid pCI-Luc (D) at 40 μg/ml in OptiMEM corresponding to a weight ratio of 2:4:1, respectively. All the complexes were mixed by pipetting briefly, kept for 1 h at room temperature and then diluted in OptiMEM to a final volume of 1.57 ml. Two hundred microliters of complexes corresponding at 0.25 μg of plasmid DNA were added to each culture well after removal of the complete growth medium. All the transfections were carried out in 6 wells each. A centrifugation (1500 rpm, during 5 minutes) could be performed to promote the complex sedimentation and cell contact. The cells were incubated with the complexes for 4 h at 37° C. before replacing with fresh media for 24 h, after which reporter gene expression was analysed by luciferase assay (Promega, Madison, Wis., USA). For bEND.3 cells, 5 mM sodium butyrate was added to the transfection medium and to the fresh media to achieve optimal expression levels.
(§4) Cells were washed once with PBS before the addition of 20 μl of 1× Reporter Lysis Buffer (Promega, Madison, Wis., USA) to the cells for 20 min at 4° C. before freezing at −80° C. for at least 30 min, followed by thawing at room temperature. Then the luciferase activity was measured during 10 seconds using the Luciferase Assay System (Promega, Madison, Wis., USA) and a Lucy-1 Luminometer (Anthos Ltd., Salzburg, Austria). The amount of protein present in each transfection lysate was determined with the Bio-Rad (Hercules, Calif., USA) protein assay reagent by the manufacturer's instructions, adding 20 μl from the luciferase test to 180 μl of the reagent diluted 1 in 5 and incubating at room temperature for 10 min before comparing the OD590 to a range of BSA standards. In vitro luciferase activity was expressed as Relative Light Units (RLU) per milligram of protein (RLU/mg).

[2] = Hydrolysis studies of PEG-acetal cleavable lipids; type: physicochemical; settings: pH at which hydrolysis was observed; 37° C., pH range 3 to 7; TLC, confirmed by mass spectrometry
Description: Hydrolysis of the PEG-acetal lipids was investigated at 37° C. over a pH range of 3 to 7.
Acid hydrolysis of the compounds was monitored by TLC, and cleavage was then confirmed by mass spectrometry. An example of the TLC analysis method used for compound JBW389 is shown FIG. 4 with a control (the cleaved acetal product, the corresponding aldehyde) and the pH at which hydrolysis for all of the compounds prepared was observed is given in Table II.

[3] = test system: primary porcine vascular smooth muscle cells (PVSMCs); assay: In vitro transfection with LPD/LD complexes, luciferase reporter (pCI-Luc); type: cell-based; settings: complexed to peptide E, p<0.05
Description: as §1, §2

bEND.3 cells = assay: as above; type: cell-based, mouse; settings: complexed to peptide E, p<0.05
Description: as §3, with “For bEND.3 cells, 5 mM sodium butyrate was added to the transfection medium and to the fresh media to achieve optimal expression levels.” left out
as §4, with “In vitro luciferase activity was expressed as Relative Light Units (RLU) per milligram of protein (RLU/mg).” left out

[4] = test system: female A/J mice bearing a tumour (Neuro 2A); assay: In vivo transfection, i.v., luciferase expression in tumours and organs; set-up: species or system mouse; settings: peptide complexed to lipid ME42/DOPE and pCI-Luc, 24 hours, p>0.05
Description: All animal procedures were approved and licensed by the Home Office and performed to the standards required by the UK Co-ordinating Committee on Cancer Research (UKCCCR) (Workman et al., British Journal of Cancer, 1998, 77, 1-10). Female A/J mice (Harlan Laboratories, U.K) of 8-12 weeks old were injected subcutaneously in the right posterior flank with 1.5×10^6 Neuro 2A cells. After 10±2 days, when tumors had reached approximately 8-12 mm in size, 100 μl of LPD complexes made in 5% glucose and containing 50 ug pCI-Luc or pAB 11 were injected into the tail vein. Experiments were carried out at least six times. Twenty-four hours after injection, mice were killed and tumours and organs were resected and stored at −80° C. Tissues were defrosted in ice, submersed in reporter gene assay lysis buffer (Roche, Germany), homogenized with an IKA homogenizer (IKA, Staufen, Germany) and centrifuged at 4600 rpm during 10 min at 4° C. The supernatant was got back and centrifuged at 13000 rpm during 10 min at 4° C. Luciferase activity in the tissue lysates was measured using a FLUOstar Optima (BMG Labtech, UK) during 30 seconds and was expressed as RLU per milligram of protein (RLU/mg). Two million RLU/30 sec correspond to 1 ng luciferase.

Neuro 2A cells = assay: In vitro transfection with LPD/LD complexes, luciferase reporter (pCI-Luc); type: cell-based, mouse
Description: as §3, with “For bEND.3 cells, 5 mM sodium butyrate was added to the transfection medium and to the fresh media to achieve optimal expression levels.” left out
as §4, with “In vitro luciferase activity was expressed as Relative Light Units (RLU) per milligram of protein (RLU/mg).” left out

[5] = lipofectin:peptide:pCI-Luc 2:4:1

Hydrolysis pH [2]	Compound	transfection efficiency, rank among PEG-acetal pH-sensitive lipids [1]	transfection efficiency of cleavable (RVRR) peptide compared with equivalent non-cleavable peptide control [1, 5]	other results
5.5	CCCCCCCC/C=C\CCCCCCCCOCC(C[N+](C)(C)CCCC(OCCOCCO)OCCOCCO)OCCCCCCCC/C=C\CCCCCCCC (centres unmarked) [JBW389, N-(2,3-Bis((Z)-octadec-9-enyloxy)propyl)-4,4-bis(2-(2-hydroxyethoxy)ethoxy)-N,N-dimethylbutan-1-aminium chloride]	the best lipids for transfection		transfection efficiency relative to non-cleavable lipid JBW456 (16HBE14o- cells): 6 times; transfection efficiency relative to non-cleavable lipid JBW456 (ΣCFTE29o- cells): 2 times
4.0	CCCCCCCC/C=C\CCCCCCCCOCC(C[N+](C)(C)CCCCCCCC(OCCOCCO)OCCOCCO)OCCCCCCCC/C=C\CCCCCCCC (centres unmarked) [JBW400, N-(2,3-bis((Z)-octadec-9-enyloxy)propyl)-8,8-bis(2-(2-hydroxyethoxy)ethoxy)-N,N-dimethyloctan-1-aminium chloride]	the best lipids for transfection		transfection efficiency relative to non-cleavable lipid JBW456 [3]: 4 times; transfection efficiency relative to non-cleavable lipid JBW456 (bEND.3 cells): 2 times
3.0	CCCC/C=C\CCCCCCCCCCOCC(C[N+](C)(C)CCCCCC(OCCOCCO)OCCOCCO)OCCCCCCCCCC/C=C\CCCC (centres unmarked) [JBW418, N-(2,3-Bis((Z)-hexadec-11-enyloxy)propyl)-6,6-bis(2-(2-hydroxyethoxy)ethoxy)-N,N-dimethylhexan-1-aminium chloride]	less efficient		
5.0	CCCCCCCC/C=C\CCCCCCCCOCC(C[N+](C)(C)CCCCCC(OCCOCCOC)OCCOCCOC)OCCCCCCCC/C=C\CCCCCCCC (centres unmarked) [JBW413, N-(2,3-Bis((Z)-octadec-9-enyloxy)propyl)-6,6-bis(2-(2-methoxyethoxy)ethoxy)-N,N-dimethylhexan-1-aminium chloride]	the best lipids for transfection		transfection efficiency compared with non-cleavable lipid JBW456 (Neuro 2A cells; complexed to peptide E, p>0.05): as efficient as JBW456
3.0	CCCCCCCC/C=C\CCCCCCCCOCC(C[N+](C)(C)CCCCCC(OCCOCCOCCOCCO)OCCOCCOCCOCCO)OCCCCCCCC/C=C\CCCCCCCC (centres unmarked) [JBW412]	less efficient		
3.5	CCCCCCCC/C=C\CCCCCCCCOCC(C[N+](C)(C)CCCCCC(OCCOCCO)OCCOCCO)OCCCCCCCC/C=C\CCCCCCCC (centres unmarked) [JBW411, N-(2,3-bis((Z)-octadec-9-enyloxy)propyl)-6,6-bis(2-(2-hydroxyethoxy)ethoxy)-N,N-dimethylhexan-1-aminium chloride]	less efficient		

More lines, now with the values behind:

Compound	Hydrolysis pH [2]	transfection efficiency, rank among PEG-acetal pH-sensitive lipids [1]	transfection efficiency of cleavable (RVRR) peptide compared with equivalent non-cleavable peptide control [1, 5]	other results
(K)16RVRRGACSERSMNFCG [ME69]			as or more efficient	
(K)16RVRRGACRGDCLG [ME27]			as or more efficient	luciferase expression in tumour, by peptide [4]: 105000 RLU/mg; transfection efficiency, rank among cleavable peptides ME27, ME28, ME29 ([1]; lipofectin:peptide:pCI-Luc 2:4:1, each of Neuro 2A, AJ3.1, bEND.3, 16HBE14o-, ΣCFTE29o-, PVSMCs, p<0.05): significantly the best cleavable peptide; transfection efficiency compared with non-cleavable peptide ME61 ([1]; lipofectin:peptide:pCI-Luc 2:4:1, other cell lines than Neuro 2A, p<0.05): significantly more efficient than ME61; transfection efficiency compared with non-cleavable peptide ME61 (Neuro 2A cells; [5]): as efficient as the non-cleavable control peptide ME61
(K)16RVRRGACRGDMFGCA [ME68]			as or more efficient	
(K)16RVRRGACRRETAWACG [FMM8]			as or more efficient	
(K)16RVRRGACYGLPHKFCG [PCY]			as or more efficient	
